The source of these data is US12256737B2, “Preparation method and application of water-soluble chlorhexidine hyaluronate antibacterial agents” (Jiangnan University, priority 2022, dated 2025).

Values after ≈ are worked out from the molar mass of the structure shown. Some results are limits rather than exact numbers.

A short description of one data set: Water solubility test. It counts as physicochemical. The conditions noted are these: deionized water, 25° C., 500 mg sample in 1 ml. As to the method: A method for testing the water solubility of the chlorhexidine antimicrobial disinfectant included the following steps: • 1 ml of deionized water was added to 500 mg of a sample to be tested and the sample was fully dissolved at 25° C. If an insoluble component existed, an insoluble portion suspended in the solution. After the solution was centrifuged in a centrifuge (rate of 5,000 r/min) for 5 min, the residual solid was washed 3 times in acetone and then dried in a vacuum oven for 24 h, and after the solid was completely dried, the solid was weighed and recorded as W1.
The solubility was calculated as follows: • solubility (mg/ml)=(500−W1)/1 • where W1 is the mass (mg) of the undissolved solid.

For another data set, the system named is L-929 mouse fibroblasts. The class given is cell-based. As to the method:
A cytotoxicity test of the hyaluronic acid chlorhexidine, for example the hyaluronic acid chlorhexidine (HAL-CHD) of example 4, specifically included the following steps: • L-929 mouse fibroblasts were digested and the cell suspension concentration was adjusted to 0.5-1 million/mL. 100 μL of the cell suspension was added into each well of a 96-well plate with […]. The wells at the edge of the 96-well plate were filled with a culture solution. The cells were cultured overnight in a 5% CO2 incubator at 37° C. Three samples of HAL-CHD-1 (1 MIC), HAL-CHD-3 (3 MIC) and HAL-CHD-5 (5 MIC) at the concentration gradients of 10 μL or less were respectively added, and 5 replicates were prepared for each concentration gradient. At the same time, a zero-setting well (containing a culture medium and CCK-8) was set. The 96-well plate was incubated in a 5% CO2 incubator at 37° C. After 24 h, 48 h and 72 h, 10 μL of a CCK-8 reagent was added. The reaction was performed in the incubator for 3 h and the absorbance was measured using a microplate reader at the wavelength of 450 nm.

A further data set concerns S. aureus. The data set is described as follows: In-vitro antimicrobial experiment (MIC, 96-well broth dilution). It counts as cell-based, Staphylococcus aureus. As to conditions: 37° C., 24 h; for MIC: LB liquid medium. As to the method: (§1) An in-vitro antimicrobial experiment of the chlorhexidine antimicrobial disinfectant was performed according to the following steps: • in a sterile super clean bench, the chlorhexidine antimicrobial disinfectants were separately prepared into 10 mg/ml solutions. A 96-well plate was taken and 100 μL of an LB liquid medium was injected into each well plate. Two rows in the same 96-well plate were respectively used as a sterile control and a drug-free control, 100 μL of the prepared chlorhexidine antimicrobial disinfectant solution was injected into the first column of the rest rows, two rows of each chlorhexidine antimicrobial disinfectant solution were injected as two groups of a parallel test, 100 μL of the uniformly mixed solution was injected into the right side well, the step was repeated until 12 columns of the wells were filled, and 100 μL of the solution was extracted from the last column and discarded. The previously cultured E. coli and S. aureus were diluted to a desired concentration of 1×10^6 CFU/mL using the LB liquid medium. 100 μL of the above-mentioned bacterial solution was injected into each well of the rows injected with the chlorhexidine antimicrobial disinfectant and the drug-free control row in the same plate. Then the plate was placed into a biochemical incubator to be cultured at 37° C. for 24 h. The plate was taken out and the change of the turbidity degree of each well was observed. […] It was observed by naked eyes that the lowest concentration of the antimicrobial agent in the clear wells where no bacteria grew was the minimum inhibitory concentration (MIC) of the tested bacteria.

Another data set has as its system E. coli. The data set is described as above. The class given is cell-based, Escherichia coli. The conditions noted are these: 37° C., 24 h; for MIC: LB liquid medium. As to the method:
as §1

The next data set can be described thus: Photostability test. The conditions noted are these: fluorescent lamp. It counts as physicochemical. As to the method: A photostability test of the hyaluronic acid chlorhexidine, for example the hyaluronic acid chlorhexidine (HA8-CHD) prepared in example 2, was performed according to the following steps: • a sample to be detected was exposed in an illumination box provided with a fluorescent lamp for 5 days and taken on 1st day, 3rd day and 5th day. Items (appearance, mass, 1H NMR spectrum detection, and antimicrobial performance) were mainly detected according to stability, especially the appearance change of the sample was particularly required to be noticed.

For `CC(=O)O.CC(=O)O.NC(=N\CCCCCC/N=C(N)/N=C(\N)Nc1ccc(Cl)cc1)/N=C(\N)Nc1ccc(Cl)cc1` [AA-CHD, chlorhexidine acetate], the Water solubility in “Water solubility test” is reported as 19.05 mg/mL.
As for hyaluronic acid chlorhexidine [HAL-CHD], the “cell viability versus control group” value with L-929 mouse fibroblasts is “higher that of the control group”.
As for hyaluronic acid chlorhexidine [HA4-CHD], in the data set on S. aureus, the “MIC, corresponding mass concentration” value was 1,250 μg/mL and the MIC was found to be 800 µM. Further, in the data set on E. coli, the “MIC, corresponding mass concentration” value is recorded as 1,667 μg/mL and the MIC came out at 1100 µM.
In “Water solubility test” (thermodynamic from solid), `[H]/N=C(\N/C(=N/[H])NCCCCCCNC(=N)NC(=N)Nc1ccc(Cl)cc1)Nc1ccc(Cl)cc1` [CHD, 1,6-bis(p-chlorophenyldiguanido)hexane] displayed a solubility of 0.85 mg/mL (≈ 1680 µM).
With hyaluronic acid chlorhexidine [HA8-CHD], in “Water solubility test”, the Water solubility was at least 500 mg/mL. In addition, in “Photostability test” (after illumination), the “antimicrobial performance after illumination” value is given as “not obviously reduced”. In addition, in the data set “Photostability test” (within 5 days of illumination), the “appearance versus freshly prepared sample” value is given as “no significant difference in appearance”, the “mass versus freshly prepared sample” value is “no significant change in the mass” and the “structure characterization (1H NMR) versus freshly prepared sample” value was “no significant difference in the structure characterization”.
`N=C(NCCCCCCNC(=N)NC(=N)Nc1ccc(Cl)cc1)NC(=N)Nc1ccc(Cl)cc1.O=C(O)[C@H](O)[C@@H](O)[C@H](O)[C@H](O)CO.O=C(O)[C@H](O)[C@@H](O)[C@H](O)[C@H](O)CO` [GA-CHD, chlorhexidine gluconate, reference compound] yielded a Water solubility in “Water solubility test” of at least 500 mg/mL. For the same compound, the MIC came to 700 µM against S. aureus and 900 µM in the data set on E. coli.

For orientation: MIC means the smallest concentration in the dilution series that meets the test's criterion for growth inhibition. A high value points to a less susceptible organism. In general, solubility refers to how much of the substance goes into solution per volume. A high value points to a readily soluble substance.
